Assay results from patent US20150051283A1, “COMPOSITION AND METHOD FOR INHIBITION OF PKNG FROM MYCOBACTERIUM TUBERCULOSIS” (priority 2013, published 2015).

Legend:
PknGΔ74/TPR = PknGΔ74/TPR (Mycobacterium tuberculosis, UniProt P9WI73); format: biochemical
rabbit muscle GAPDH = target: T1, rabbit muscle GAPDH (Oryctolagus cuniculus, UniProt P46406); test: Reversibility of GAPDH inhibition by DTT (positive control); format: biochemical; settings: OA-NO2-inhibited GAPDH
T1 construct: rabbit muscle GAPDH as model protein; from tissue; host or cells: rabbit muscle
Procedure: FIG. 11A: PknG was inhibited by incubation with OA-NO2 (50 μM) in 70 mM ammonium bicarbonate, pH 8.0 at 25° C. for 10 min, as previously. Kinase activity of PknG inhibited by OA-NO2 was measured (PknG+OA-NO2). Subsequently, nitroalkylated samples were treated with DTT (42 mM) or GSH (24 mM) for 15 min at 25° C. and kinase activity was re-measured (PknG+OA-NO2+RSH). Activity recovery was expressed as a ratio between [activity of PknG+OA-NO2+RSH]/[activity PknG+OA-NO2] where 1 means no activity recovery after thiol-containing agent treatment. GAPDH was used as a positive control: after DTT treatment 90% of the initial activity was recovered representing a 12 fold increase in the enzyme activity after the RSH treatment. […] Three independent experiments were performed FIG. 11B: MALDI-TOF mass spectrum of peptides generated by tryptic digestion of PknG. Upper panel: untreated PknG, middle panel: PknG exposed to OA-NO2 and lower panel: idem middle panel+42 mM DTT. In each panel the native or nitroalkylated form of the peptide with the sequence 122-154 that includes the Rbx-Cys 128 and 131, are shown. […]
We have previously reported that nitrated fatty acids are capable to inhibit GAPDH activity by modification of nucleophilic amino acid residues in a thiol-reversible manner. […] PknG control activity was measured in the presence of the thiol-containing reagents. […]

[1] = target: Xanthine oxidoreductase (XOR) (Homo sapiens, UniProt P47989); settings: reference [15]; cited from earlier work
Sequence of Xanthine oxidoreductase (XOR) (P47989 whole entry): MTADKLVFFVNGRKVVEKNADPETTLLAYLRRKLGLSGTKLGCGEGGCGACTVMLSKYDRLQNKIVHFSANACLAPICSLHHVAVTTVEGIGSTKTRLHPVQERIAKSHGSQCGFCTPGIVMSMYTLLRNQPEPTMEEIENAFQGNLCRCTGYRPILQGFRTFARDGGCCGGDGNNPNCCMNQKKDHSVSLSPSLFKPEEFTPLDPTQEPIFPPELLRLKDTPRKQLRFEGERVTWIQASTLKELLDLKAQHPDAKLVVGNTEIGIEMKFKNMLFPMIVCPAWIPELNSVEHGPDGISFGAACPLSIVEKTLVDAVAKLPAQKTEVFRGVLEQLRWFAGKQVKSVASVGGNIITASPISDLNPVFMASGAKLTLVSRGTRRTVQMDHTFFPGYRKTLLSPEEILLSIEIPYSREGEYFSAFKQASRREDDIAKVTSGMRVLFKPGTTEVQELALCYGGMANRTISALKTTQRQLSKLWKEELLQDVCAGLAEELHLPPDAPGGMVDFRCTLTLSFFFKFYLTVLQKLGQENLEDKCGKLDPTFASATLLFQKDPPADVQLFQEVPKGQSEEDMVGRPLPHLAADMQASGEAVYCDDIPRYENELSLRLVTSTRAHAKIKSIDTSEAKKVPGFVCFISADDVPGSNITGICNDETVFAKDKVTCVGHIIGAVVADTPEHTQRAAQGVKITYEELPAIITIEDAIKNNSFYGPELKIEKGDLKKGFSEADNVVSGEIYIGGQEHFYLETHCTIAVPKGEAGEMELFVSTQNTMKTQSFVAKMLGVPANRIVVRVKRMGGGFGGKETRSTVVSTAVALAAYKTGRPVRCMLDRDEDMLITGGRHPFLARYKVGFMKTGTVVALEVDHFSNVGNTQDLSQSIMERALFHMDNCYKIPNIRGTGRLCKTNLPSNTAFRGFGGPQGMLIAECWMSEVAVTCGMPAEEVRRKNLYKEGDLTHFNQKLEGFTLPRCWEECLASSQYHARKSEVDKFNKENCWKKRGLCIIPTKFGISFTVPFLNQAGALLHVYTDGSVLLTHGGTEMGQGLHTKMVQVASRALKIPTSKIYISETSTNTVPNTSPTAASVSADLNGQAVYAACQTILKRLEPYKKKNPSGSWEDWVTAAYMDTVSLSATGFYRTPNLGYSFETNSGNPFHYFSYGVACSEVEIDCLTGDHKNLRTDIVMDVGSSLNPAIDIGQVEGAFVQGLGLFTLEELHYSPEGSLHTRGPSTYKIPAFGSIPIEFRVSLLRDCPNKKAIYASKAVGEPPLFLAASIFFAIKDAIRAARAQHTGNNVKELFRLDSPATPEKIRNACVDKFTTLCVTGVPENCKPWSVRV

T1 sequence (P46406 whole entry): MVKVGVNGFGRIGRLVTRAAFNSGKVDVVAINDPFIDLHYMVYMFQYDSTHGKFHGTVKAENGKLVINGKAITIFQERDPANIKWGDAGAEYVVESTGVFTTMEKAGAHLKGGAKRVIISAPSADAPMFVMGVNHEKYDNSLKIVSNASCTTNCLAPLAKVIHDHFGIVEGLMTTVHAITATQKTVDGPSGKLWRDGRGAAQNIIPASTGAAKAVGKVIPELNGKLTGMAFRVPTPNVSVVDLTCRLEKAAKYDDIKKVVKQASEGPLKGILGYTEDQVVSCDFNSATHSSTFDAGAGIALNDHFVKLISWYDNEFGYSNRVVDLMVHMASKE
Sequence of PknGΔ74/TPR (P9WI73 whole entry, looked up, stated change not applied): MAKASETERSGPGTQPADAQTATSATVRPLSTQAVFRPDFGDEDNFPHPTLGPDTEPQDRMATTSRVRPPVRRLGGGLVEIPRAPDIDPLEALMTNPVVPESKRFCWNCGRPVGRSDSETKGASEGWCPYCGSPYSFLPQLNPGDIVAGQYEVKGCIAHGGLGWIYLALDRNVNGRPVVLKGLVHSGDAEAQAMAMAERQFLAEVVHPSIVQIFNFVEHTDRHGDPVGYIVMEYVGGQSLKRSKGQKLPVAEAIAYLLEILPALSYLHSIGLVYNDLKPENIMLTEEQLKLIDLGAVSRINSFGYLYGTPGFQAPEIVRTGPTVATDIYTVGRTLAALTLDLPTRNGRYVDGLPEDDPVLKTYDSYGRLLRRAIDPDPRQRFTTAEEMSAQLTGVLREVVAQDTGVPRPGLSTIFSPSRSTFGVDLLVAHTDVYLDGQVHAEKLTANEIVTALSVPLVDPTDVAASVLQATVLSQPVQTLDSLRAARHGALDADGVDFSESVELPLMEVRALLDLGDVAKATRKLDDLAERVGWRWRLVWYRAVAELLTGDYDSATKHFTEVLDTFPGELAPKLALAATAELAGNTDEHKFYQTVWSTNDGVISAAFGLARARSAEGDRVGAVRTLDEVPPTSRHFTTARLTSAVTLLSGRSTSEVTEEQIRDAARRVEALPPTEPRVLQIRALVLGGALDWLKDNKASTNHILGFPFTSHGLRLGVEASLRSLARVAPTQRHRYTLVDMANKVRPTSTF

## 9- and 10-nitro-octadeca-9-cis-enoic acid [OA-NO2]
PknGΔ74/TPR
  enzyme inhibition of PknGΔ74/TPR: fully inhibited
Rabbit muscle GAPDH
  increase in GAPDH activity after RSH treatment: 12 fold
  initial GAPDH activity recovered after DTT treatment: 90%
[1]
  XOR inhibition, reversibility: not reversed by thiol reagents
